Results reported in patent US20050112573A1, “Method of detecting toxic substance” (priority 2001, published 2005).

System: yeast genes (level of expressed mRNA)
Experiment: DNA chip analysis of expressed mRNA of yeast genes after 2 h culture with a toxic chemical substance
Format: cell-based, Saccharomyces cerevisiae S288C
Experimental: Yeast (Saccharomyces cerevtisiae S288C (α SUC2mal mel gap2 CUP1)) were cultured at 25° C. on YPD medium (yeast extract 1%, polypepton 2%, glucose 2%). One of toxic chemical substances was added to the cell at logarithmic growth phase, and the cell was further cultured for two hours. Cell was cultured without any chemical substance in the same condition, and was used as control. Concentrations of the chemical substances were defined to inhibit the growth of the yeast but not lead to death.
After the completion of cultivation, the culture was centrifuged to collect the cells. To the cells, sodium acetate buffer (50 mM sodium acetate, 10 mM EDTA, 1% SDS) was added, and the mixture was shaken at 65° C. for five minutes, followed by returning to room temperature, and obtaining the supernatant, which procedure was repeated two times. To the supernatant, ½ amount of a solution of phenol/chloroform was added, and the mixture was centrifuged to give a supernatant, which was added with an equal amount of chloroform, and the mixture was centrifuged to give a supernatant. To the supernatant, an equal amount of isopropanol containing 0.3 M sodium acetate was added, and the mixture was allowed to stand at room temperature for 30 minutes, after which the mixture was centrifuged to give a sediment of the whole RNAs. Seventy % ethanol was added to the sediment, and the mixture was again centrifuged to give a sediment, which was then dried and dissolved in water. mRNA was isolated from the whole RNAs as followings. In view of the fact that a poly A chain is attached to the 3′ terminus of mRNA, a polynucleotide having a poly T structure which was immobilized on the surface of latex beads was used to trap the mRNA, and then the mRNA was washed and eluted with spine column (Oligotex-dT30<Super>mRNA Purification Kit, Takara). Reverse transcription of the mRNA was conducted with a reverse transcriptase (Super Script II Reverse Transcriptase; catalogue No. 18064-014, GibcoBRL) using fluorescence-labeled nucleotides to give cDNAs that were introduced with Cy3-dUTP or Cy5-dUTP during the reverse transcription.
The labeled cDNAs were dissolved in TE buffer (10 mM Tris-HCl/1 mM EDTA, pH8.0), and the solution was dropped on the DNA chip containing the whole genes of yeast (DNA Chip Research Inc. Japan) so that the cDNAs were hybridized on the DNA chip at 65° C. for over 12 hours. The fluoresces intensity of the DNA chip was read with a scanner, and the ratio relative to the fluorescence intensity resulting from the absence of chemical substance was estimated as the following, which is shown in Tables 1 to 9: [formula]
In the Tables, “Intensity” indicated in the rightmost column is a value of the level of expressed mRNA of each gene in control cells as divided by the average level of the expressions of the whole genes.

γ-hexachlorocyclohexane [(7)]
The level of expressed mRNA in the presence of chemical substance/ (yeast gene YNL074C, ratio to control without chemical substance, 2 h culture): 1.1
The level of expressed mRNA in the presence of chemical substance/ (yeast gene YNL092W, ratio to control without chemical substance, 2 h culture): 1.6
The level of expressed mRNA in the presence of chemical substance/The level of expressed mRNA in the absence of chemical substance (yeast gene YNL093W): 1.4
The level of expressed mRNA in the presence of chemical substance/ (yeast gene YNL115C, ratio to control without chemical substance, 2 h culture): 2.4
The level of expressed mRNA in the presence of chemical substance/ (yeast gene YNL156C, ratio to control without chemical substance, 2 h culture): 1.9
The level of expressed mRNA in the presence of chemical substance/ (yeast gene YNL234W, ratio to control without chemical substance, 2 h culture): 1.2
The level of expressed mRNA in the presence of chemical substance/ (yeast gene YNL281W, ratio to control without chemical): 1.2
The level of expressed mRNA in the presence of chemical substance/ (yeast gene YNL305C, ratio to control without chemical): 1.7
The level of expressed mRNA in the presence of chemical substance/The level of expressed mRNA in the absence of chemical substance (yeast gene YNL333W): 2.9
The level of expressed mRNA in the presence of chemical substance/The level of expressed mRNA in the absence of chemical substance (yeast gene YNR010W): 1.5
The level of expressed mRNA in the presence of chemical substance/ (yeast gene YNR068C, ratio to control without chemical): 1.8
The level of expressed mRNA in the presence of chemical substance/The level of expressed mRNA in the absence of chemical substance (yeast gene YNR069C): 1.4
The level of expressed mRNA in the presence of chemical substance/in the absence of chemical substance (yeast gene YNR072W): 1.5
The level of expressed mRNA in the presence of chemical substance/The level of expressed mRNA in the absence of chemical substance (yeast gene YOL013C): 1.7
The level of expressed mRNA in the presence of chemical substance/ (yeast gene YOL032W, ratio to control without chemical): 1.4
The level of expressed mRNA in the presence of chemical substance/ (yeast gene YOL036W, ratio to control without chemical): 1.0
The level of expressed mRNA in the presence of chemical substance/ (yeast gene YOL047C, ratio to control without chemical): 1.3
The level of expressed mRNA in the presence of chemical substance/ (yeast gene YOL071W, ratio to control without chemical): 2.0
The level of expressed mRNA in the presence of chemical substance/ (yeast gene YOL082W, ratio to control without chemical): 2.5
The level of expressed mRNA in the presence of chemical substance/ (yeast gene YOL083W, ratio to control without chemical): 3.1
The level of expressed mRNA in the presence of chemical substance/in the absence of chemical substance (yeast gene YOL096C): 1.7
The level of expressed mRNA in the presence of chemical substance/ (yeast gene YOL117W, ratio to control without chemical): 1.6
The level of expressed mRNA in the presence of chemical substance/ (yeast gene YOL131W, ratio to control without chemical): 1.3
The level of expressed mRNA in the presence of chemical substance/ (yeast gene YOL150C, ratio to control without chemical substance, 2 h culture): 2.4
The level of expressed mRNA in the presence of chemical substance/ (yeast gene YOL162W, ratio to control without chemical): 2.0
The level of expressed mRNA in the presence of chemical substance/The level of expressed mRNA in the absence of chemical substance (yeast gene YOL164W): 2.2
The level of expressed mRNA in the presence of chemical substance/ (yeast gene YOR019W, ratio to control without chemical): 2.8
The level of expressed mRNA in the presence of chemical substance/The level of expressed mRNA in the absence of chemical substance (yeast gene YOR036W): 1.8
The level of expressed mRNA in the presence of chemical substance/The level of expressed mRNA in the absence of chemical substance (yeast gene YOR117W): 3.3
The level of expressed mRNA in the presence of chemical substance/The level of expressed mRNA in the absence of chemical substance (yeast gene YOR124C): 1.1
The level of expressed mRNA in the presence of chemical substance/The level of expressed mRNA in the absence of chemical substance (yeast gene YOR132W): 1.4
The level of expressed mRNA in the presence of chemical substance/The level of expressed mRNA in the absence of chemical substance (yeast gene YOR157C): 1.2
The level of expressed mRNA in the presence of chemical substance/in the absence of chemical substance (yeast gene YOR180C): 0.8
The level of expressed mRNA in the presence of chemical substance/The level of expressed mRNA in the absence of chemical substance (yeast gene YOR181W): 0.7
The level of expressed mRNA in the presence of chemical substance/The level of expressed mRNA in the absence of chemical substance (yeast gene YOR185C): 1.3
The level of expressed mRNA in the presence of chemical substance/ (yeast gene YOR197W, ratio to control without chemical): 0.9
The level of expressed mRNA in the presence of chemical substance/The level of expressed mRNA in the absence of chemical substance (yeast gene YOR198C): 1.6
The level of expressed mRNA in the presence of chemical substance/The level of expressed mRNA in the absence of chemical substance (yeast gene YOR259C): 1.3
The level of expressed mRNA in the presence of chemical substance/The level of expressed mRNA in the absence of chemical substance (yeast gene YOR261C): 1.9
The level of expressed mRNA in the presence of chemical substance/The level of expressed mRNA in the absence of chemical substance (yeast gene YOR288C): 2.0
The level of expressed mRNA in the presence of chemical substance/The level of expressed mRNA in the absence of chemical substance (yeast gene YOR355W): 1.1
The level of expressed mRNA in the presence of chemical substance/in the absence of chemical substance (yeast gene YOR363C): 0.7
The level of expressed mRNA in the presence of chemical substance/The level of expressed mRNA in the absence of chemical substance (yeast gene YOR383C): 8.0
The level of expressed mRNA in the presence of chemical substance/ (yeast gene YPL087W, ratio to control without chemical): 4.2
The level of expressed mRNA in the presence of chemical substance/The level of expressed mRNA in the absence of chemical substance (yeast gene YPL089C): 0.9
The level of expressed mRNA in the presence of chemical substance/The level of expressed mRNA in the absence of chemical substance (yeast gene YPL109C): 1.8
The level of expressed mRNA in the presence of chemical substance/The level of expressed mRNA in the absence of chemical substance (yeast gene YPL149W): 1.2
The level of expressed mRNA in the presence of chemical substance/The level of expressed mRNA in the absence of chemical substance (yeast gene YPL154C): 1.5
The level of expressed mRNA in the presence of chemical substance/ (yeast gene YPL196W, ratio to control without chemical): 2.4
The level of expressed mRNA in the presence of chemical substance/ (yeast gene YPL206C, ratio to control without chemical): 1.2
The level of expressed mRNA in the presence of chemical substance/ (yeast gene YPL222W, ratio to control without chemical): 1.1
The level of expressed mRNA in the presence of chemical substance/ (yeast gene YPR023C, ratio to control without chemical): 1.2
The level of expressed mRNA in the presence of chemical substance/The level of expressed mRNA in the absence of chemical substance (yeast gene YPR103W): 1.6
The level of expressed mRNA in the presence of chemical substance/The level of expressed mRNA in the absence of chemical substance (yeast gene YPR108W): 1.6
The level of expressed mRNA in the presence of chemical substance/ (yeast gene YPR151C, ratio to control without chemical): 4.4
The level of expressed mRNA in the presence of chemical substance/in the absence of chemical substance (yeast gene YPR184W): 1.3
